Data taken from ChEMBL document CHEMBL1131906, “Synthesis and structure-activity relationships of new second-generation taxoids” (Bioorg Med Chem Lett, 1999).

Legend:
MCF7 [1] = assay: Inhibitory activity against the growth of MCF-7R ( multi drug resistant human breast carcinoma) cell line after 72 hours of drug exposure; type: functional, cell-based; details: MCF7, 72 h
MCF7 [2] = assay: Inhibitory activity against the growth of MCF-7 (human breast carcinoma) cell line after 72 hours of drug exposure; type: functional, cell-based; details: MCF7, 72 h
[3] = Inhibitory activity against the growth of LCC6-WT (human breast carcinoma) cell line after 72 hours of drug exposure; type: functional
[4] = Inhibitory activity against the growth of LCC6-MDR (Multi Drug Resistant 1 transduced line) cell line after 72 hours of drug exposure; type: functional; details: Homo sapiens, LCC6MDR
MCF7 [5] = assay: Ratio of activities, drug resistant (R) to drug sensitive (S) carcinoma cell lines; type: functional, Homo sapiens

IC50 (MCF7 [1]) [nM]	IC50 (MCF7 [2]) [nM]	SMILES	IC50 [3] [nM]	IC50 [4] [nM]	Ratio (MCF7 [5])
1.5	0.6	CCC(=O)O[C@H]1C(=O)[C@@]2(C)C([C@H](OC(=O)c3cccc(OC)c3)[C@]3(O)C[C@H](OC(=O)[C@H](O)[C@@H](NC(=O)OC(C)(C)C)[C@H]4CC4(C)C)C(C)=C1C3(C)C)[C@]1(OC(C)=O)CO[C@@H]1C[C@@H]2O (some centres undefined)	0.48		
		CCC(=O)O[C@H]1C(=O)[C@@]2(C)C([C@H](OC(=O)c3cccc(F)c3)[C@]3(O)C[C@H](OC(=O)[C@H](O)[C@H](C=C(C)C)NC(=O)OC(C)(C)C)C(C)=C1C3(C)C)[C@]1(OC(C)=O)CO[C@@H]1C[C@@H]2O (some centres undefined)	0.5		
2.3	0.8	COc1cccc(C(=O)O[C@H]2C3[C@](C)(C(=O)[C@H](OC(C)=O)C4=C(C)[C@@H](OC(=O)[C@H](O)[C@H](C=C(C)C)NC(=O)OC(C)(C)C)C[C@]2(O)C4(C)C)[C@@H](O)C[C@H]2OC[C@@]32OC(C)=O)c1 (some centres undefined)	0.6		
4.3	0.4	CCC(=O)O[C@H]1C(=O)[C@@]2(C)C([C@H](OC(=O)c3cccc(OC)c3)[C@]3(O)C[C@H](OC(=O)[C@H](O)[C@@H](NC(=O)OC(C)(C)C)C(F)F)C(C)=C1C3(C)C)[C@]1(OC(C)=O)CO[C@@H]1C[C@@H]2O (some centres undefined)	1.5		
		COc1cccc(C(=O)O[C@H]2C3[C@](C)(C(=O)[C@H](OC(=O)C4CC4)C4=C(C)[C@@H](OC(=O)[C@H](O)[C@H](C=C(C)C)NC(=O)OC(C)(C)C)C[C@]2(O)C4(C)C)[C@@H](O)C[C@H]2OC[C@@]32OC(C)=O)c1 (some centres undefined)	1	2.9	2.9
7.7	2	C=CCC[C@H](NC(=O)OC(C)(C)C)[C@@H](O)C(=O)O[C@H]1C[C@@]2(O)[C@@H](OC(=O)c3cccc(OC)c3)C3[C@](C)(C(=O)[C@H](OC(=O)CC)C(=C1C)C2(C)C)[C@@H](O)C[C@H]1OC[C@@]31OC(C)=O (some centres undefined)	0.9		
		CCC(=O)O[C@H]1C(=O)[C@@]2(C)C([C@H](OC(=O)c3cccc(F)c3)[C@]3(O)C[C@H](OC(=O)[C@H](O)[C@H](CC(C)C)NC(=O)OC(C)(C)C)C(C)=C1C3(C)C)[C@]1(OC(C)=O)CO[C@@H]1C[C@@H]2O (some centres undefined)	0.4		
		C/C=C\[C@H](NC(=O)OC(C)(C)C)[C@@H](O)C(=O)O[C@H]1C[C@@]2(O)[C@@H](OC(=O)c3cccc(OC)c3)C3[C@](C)(C(=O)[C@H](OC(=O)CC)C(=C1C)C2(C)C)[C@@H](O)C[C@H]1OC[C@@]31OC(C)=O (some centres undefined)	1.2		
		CCC(=O)O[C@H]1C(=O)[C@@]2(C)C([C@H](OC(=O)c3cccc(Cl)c3)[C@]3(O)C[C@H](OC(=O)[C@H](O)[C@H](C=C(C)C)NC(=O)OC(C)(C)C)C(C)=C1C3(C)C)[C@]1(OC(C)=O)CO[C@@H]1C[C@@H]2O (some centres undefined)	0.8		
2.1	1	CCC(=O)O[C@H]1C(=O)[C@@]2(C)C([C@H](OC(=O)c3cccc(N=[N+]=[N-])c3)[C@]3(O)C[C@H](OC(=O)[C@H](O)[C@H](CC(C)C)NC(=O)OC(C)(C)C)C(C)=C1C3(C)C)[C@]1(OC(C)=O)CO[C@@H]1C[C@@H]2O (some centres undefined)	1.1		
8.7	0.8	C=CC[C@H](NC(=O)OC(C)(C)C)[C@@H](O)C(=O)O[C@H]1C[C@@]2(O)[C@@H](OC(=O)c3cccc(OC)c3)C3[C@](C)(C(=O)[C@H](OC(=O)CC)C(=C1C)C2(C)C)[C@@H](O)C[C@H]1OC[C@@]31OC(C)=O (some centres undefined)	1.2		
5	0.8	CC(=O)O[C@H]1C(=O)[C@@]2(C)C([C@H](OC(=O)c3cccc(C)c3)[C@]3(O)C[C@H](OC(=O)[C@H](O)[C@H](C=C(C)C)NC(=O)OC(C)(C)C)C(C)=C1C3(C)C)[C@]1(OC(C)=O)CO[C@@H]1C[C@@H]2O (some centres undefined)	1.5		
		C=Cc1cccc(C(=O)O[C@H]2C3[C@](C)(C(=O)[C@H](OC(=O)CC)C4=C(C)[C@@H](OC(=O)[C@H](O)[C@H](C=C(C)C)NC(=O)OC(C)(C)C)C[C@]2(O)C4(C)C)[C@@H](O)C[C@H]2OC[C@@]32OC(C)=O)c1 (some centres undefined)	2.9		
1.1	0.9	CCC(=O)O[C@H]1C(=O)[C@@]2(C)C([C@H](OC(=O)c3cccc(N=[N+]=[N-])c3)[C@]3(O)C[C@H](OC(=O)[C@H](O)[C@H](C=C(C)C)NC(=O)OC(C)(C)C)C(C)=C1C3(C)C)[C@]1(OC(C)=O)CO[C@@H]1C[C@@H]2O (some centres undefined)	0.9		
		CC(=O)O[C@@]12CO[C@@H]1C[C@H](O)[C@@]1(C)C(=O)[C@H](O)C3=C(C)[C@@H](OC(=O)[C@H](O)[C@@H](NC(=O)OC(C)(C)C)c4ccccc4)C[C@@](O)([C@@H](OC(=O)c4ccccc4)[C@H]21)C3(C)C.O.O.O [DOCETAXEL]	1	120	
		CC(=O)O[C@H]1C(=O)[C@@]2(C)[C@H]([C@H](OC(=O)c3ccccc3)[C@]3(O)C[C@H](OC(=O)[C@H](O)[C@@H](NC(=O)c4ccccc4)c4ccccc4)C(C)=C1C3(C)C)[C@]1(OC(C)=O)CO[C@@H]1C[C@@H]2O [PACLITAXEL]	3.1	346	

SMILES	IC50 (MCF7 [1]) [nM]	IC50 (MCF7 [2]) [nM]	IC50 [3] [nM]	IC50 [4] [nM]	Ratio (MCF7 [5])
CCC(=O)O[C@H]1C(=O)[C@@]2(C)C([C@H](OC(=O)c3cccc(OC)c3)[C@]3(O)C[C@H](OC(=O)[C@H](O)[C@H](C=C(C)C)NC(=O)OC(C)(C)C)C(C)=C1C3(C)C)[C@]1(OC(C)=O)CO[C@@H]1C[C@@H]2O (some centres undefined)	0.33	0.36	1		
